Patent US20130213885A1, “FORWARD OSMOSIS SYSTEM AND PROCESS” (KING ABDULLAH UNIVERSITY OF SCIENCE AND TECHNOLOGY, priority 2012, published 2013)

Assay: Laboratory-scale forward osmosis performance test (water flux, salt flux)
Settings: AL-DS
Experimental: Prior to use, CTA1 and CTA2 membranes were soaked in water for 30 minutes, and other membranes were soaked in isopropanol for 30 minutes, followed by a soaking in deionized (DI) water for 10 hours.
The specially designed cross-flow membrane cell (301) has a channel (302, 303) on each side of the membrane (304), which allows the feed solution (305) and draw solution (306) to flow through separately. Each channel has dimensions of 2.8 mm, 50 mm, and 100 mm for channel height, length, and width, respectively. Co-current flow was used with a flow rate in each channel that was controlled by a peristaltic pump (307, 308) and a flow meter (309, 310). The cross-flow rates for the feed and draw solution were both maintained at […]. A heat exchanger (311) was used to maintain the feed solution (305) and draw solution (306) at 23° C. A stirrer (318) on the feed side was also used. A weighing scale (312) connected to a computer (313) was used to monitor the weight of water permeating through the membrane from the feed to the draw side, from which the water flux was calculated. A conductivity meter (314) in the feed side was used to determine the salt concentration and thus the salt flux. A draw side conductivity meter (315) also exists to take measurements on the draw side. The laboratory scale unit (300) also comprises a feed-side thermistor (316) and a draw-side thermistor (317).

With `[Cl-].[Na+]` [NaCl, sodium chloride] the “water flux relative to sodium lignin sulfonate as draw solute” value (CTA1 and CTA2 membranes, feed deionized water, different osmotic pressures) was “doubles”, the “salt flux relative to sodium lignin sulfonate as draw solute” value (CTA1 membrane, feed deionized water) was “about four times” and the “salt flux relative to sodium lignin sulfonate as draw solute” value (CTA2 membrane, feed deionized water) was “about the same range”. The “water flux, relatively stable stage” value (RO1 membrane, draw solute at 84 bar, feed DI, after first 10 minutes) was “around 4 LMH”.
